Patent US11753395B2 (Kinnate Biopharma Inc., priority 2021, dated 2023)

Tests used:
MET D1228N = target: T1, MET D1228N (Homo sapiens, UniProt P08581, D1228N); test: MET D1228N Mobility Shift Assay; conditions: biochemical assay IC50; 100 μM ATP, 60 minute kinase reaction
T1 construct: purchased Signalchem M52-12IG
How it was run: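 Microfluidic electrophoresis quantified phosphorylated versus unphosphorylated 5-FAM-KKKKEEIYFFF peptide (1.5 μM) after a 60 min reaction with 100 μM ATP. MET D1228N (0.313 nM) in 50 mM HEPES, 10 mM MgCl2, 2 mM DTT was preincubated 30 min; IC50 fitted to conversion inhibition.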

[1] = target: T2, Ba/F3-TPR-MET-D1228N cells (Homo sapiens, UniProt P08581, D1228N, cells depend on it); test: CellTiter-Glo Cell Viability Assay, Ba/F3-TPR-MET-D1228N; format: cell-based; conditions: 72 hours
T2 construct: fused on or other part: P12270 (Nucleoprotein TPR)
How it was run: (§1)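 IC50 values come from curve-fitted luminescence. Viable-cell ATP was read by CellTiter-Glo 2.0 after a 72 h, 37 °C incubation of 3000 TPR-MET or D1228N-mutant Ba/F3 cells per well. Compounds were tested as a 9-point, 3-fold series with 0.1% DMSO final.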

Ba/F3-TPR-MET cells = target: T3, Ba/F3-TPR-MET cells (Homo sapiens, UniProt P08581); test: CellTiter-Glo Cell Viability Assay, Ba/F3-TPR-MET; format: cell-based; conditions: 72 hours
T3 construct: fused on or other part: P12270 (Nucleoprotein TPR)
How it was run: as §1

MET = target: T4, MET (Homo sapiens, UniProt P08581); test: MET Mobility Shift Assay; conditions: biochemical assay IC50; 100 μM ATP, 60 minute kinase reaction
T4 construct: purchased Carna Biosciences 08-151
How it was run: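 IC50s come from inhibition of substrate-to-phosphopeptide conversion, read by electrophoretic mobility shift. Reaction: 100 μM ATP, 1.5 μM 5-FAM peptide, 0.625 nM MET, 10 mM MgCl2, 60 min, after a 30 min room-temperature enzyme pre-incubation, quenched with EDTA.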

IC50 (MET D1228N) [nM]	IC50 (MET) [nM]	Molecule	EC50 [1] [nM]	EC50 (Ba/F3-TPR-MET cells) [nM]
≤ 100	≤ 100	(R)-N-(4-((7-(2-aminopropoxy)quinolin-4-yl)oxy)-3,5-difluorophenyl)-4-cyclopropoxypyridine-3-carboxamide [Example 13]	≤ 100	100 to 1000
≤ 100	≤ 100	CCc1ccncc1C(=O)Nc1cc(F)c(Oc2ccnc3cc(OCCNC)c(OC)cc23)c(F)c1 [Example 49, N-(3,5-difluoro-4-((6-methoxy-7-(2-(methylamino)ethoxy)quinolin-4-yl)oxy)phenyl)-4-ethylpyridine-3-carboxamide]	100 to 1000	100 to 1000
≤ 100	≤ 100	CC(C)(CO)Oc1ccc2c(Oc3c(F)cc(NC(=O)c4cnccc4OC4CC4)cc3F)ccnc2c1 [Example 108, 4-cyclopropoxy-N-(3,5-difluoro-4-((7-((1-hydroxy-2-methylpropan-2-yl)oxy)quinolin-4-yl)oxy)phenyl)pyridine-3-carboxamide]	1000 to 10000	1000 to 10000
≤ 100	≤ 100	CNCCOc1ccc2c(Oc3c(F)cc(NC(=O)c4cnccc4OC4CC4)cc3F)ccnc2c1 [Example 87, 4-cyclopropoxy-N-[3,5-difluoro-4-({7-[2-(methylamino)ethoxy]quinolin-4-yl}oxy)phenyl]pyridine-3-carboxamide]	≤ 100	≤ 100
≤ 100	≤ 100	COc1cc2c(Oc3c(F)cc(NC(=O)c4cnccc4OC)cc3F)ccnc2cc1OCCO [Example 121, N-(3,5-difluoro-4-((7-(2-hydroxyethoxy)-6-methoxyquinolin-4-yl)oxy)phenyl)-4-methoxypyridine-3-carboxamide]	≤ 100	≤ 100
≤ 100	≤ 100	CCOc1cc(N)ncc1C(=O)Nc1cc(F)c(Oc2ccnc3cc(OCCCN4CCOCC4)c(OC)cc23)cc1F [Example 32, 6-amino-N-[2,5-difluoro-4-({6-methoxy-7-[3-(morpholin-4-yl)propoxy]quinolin-4-yl}oxy)phenyl]-4-ethoxypyridine-3-carboxamide]	100 to 1000	100 to 1000
≤ 100	≤ 100	COc1cc2c(Oc3c(F)cc(NC(=O)c4cnccc4OC4CC4)cc3F)ccnc2cc1OC[C@H](C)O [Example 98, 4-cyclopropoxy-N-[3,5-difluoro-4-({7-[(2S)-2-hydroxypropoxy]-6-methoxyquinolin-4-yl}oxy)phenyl]pyridine-3-carboxamide]	≤ 100	≤ 100

More lines, now with the values behind:

Molecule	IC50 (MET D1228N) [nM]	IC50 (MET) [nM]	EC50 [1] [nM]	EC50 (Ba/F3-TPR-MET cells) [nM]
CCCOc1ccncc1C(=O)Nc1cc(F)c(Oc2ccnc3cc(OCCNC)c(OC)cc23)cc1F [Example 52, N-(2,5-difluoro-4-((6-methoxy-7-(2-(methylamino)ethoxy)quinolin-4-yl)oxy)phenyl)-4-propoxypyridine-3-carboxamide]	≤ 100	≤ 100	100 to 1000	100 to 1000
(S)-N-(4-((7-(2-aminopropoxy)quinolin-4-yl)oxy)-3,5-difluorophenyl)-4-cyclopropoxypyridine-3-carboxamide [Example 12]	≤ 100	≤ 100	≤ 100	≤ 100
COc1cc2c(Oc3c(F)cc(NC(=O)c4cnccc4OCC(F)F)cc3F)ccnc2cc1OCCO [Example 135, N-(3,5-difluoro-4-((7-(2-hydroxyethoxy)-6-methoxyquinolin-4-yl)oxy)phenyl)-4-(2,2-difluoroethoxy)pyridine-3-carboxamide]	≤ 100	≤ 100	≤ 100	≤ 100
O=C(Nc1cc(F)c(Oc2ccnc3cc(OCCO)ccc23)c(F)c1)c1cnccc1OC1CC1 [Example 100, 4-cyclopropoxy-N-(3,5-difluoro-4-{[7-(2-hydroxyethoxy)quinolin-4-yl]oxy}phenyl)pyridine-3-carboxamide]	≤ 100	≤ 100	≤ 100	100 to 1000
COc1cc2c(Oc3c(F)cc(NC(=O)c4c(OCC(F)F)ccnc4F)cc3F)ccnc2cc1OCCO [Example 141, N-(3,5-difluoro-4-((7-(2-hydroxyethoxy)-6-methoxyquinolin-4-yl)oxy)phenyl)-4-(2,2-difluoroethoxy)-2-fluoropyridine-3-carboxamide]	≤ 100	≤ 100	≤ 100	≤ 100
CNCCOc1cc2nccc(Oc3c(F)cc(NC(=O)c4cnccc4OC4CC(F)(F)C4)cc3F)c2cc1OC [Example 57, N-[3,5-difluoro-4-({6-methoxy-7-[2-(methylamino)ethoxy]quinolin-4-yl}oxy)phenyl]-4-(3,3-difluorocyclobutoxy)pyridine-3-carboxamide]	≤ 100	≤ 100	100 to 1000	100 to 1000
O=C(Nc1cc(F)c(Oc2ccnc3cc(OC4CNC4)ccc23)c(F)c1)c1cnccc1OC1CC1 [Example 89, N-(4-{[7-(azetidin-3-yloxy)quinolin-4-yl]oxy}-3,5-difluorophenyl)-4-cyclopropoxypyridine-3-carboxamide]	≤ 100	≤ 100	100 to 1000	100 to 1000
COc1cc2c(Oc3c(F)cc(NC(=O)c4nnccc4OC4CC4)cc3F)ccnc2cc1OCCO [Example 148, 4-cyclopropoxy-N-(3,5-difluoro-4-((7-(2-hydroxyethoxy)-6-methoxyquinolin-4-yl)oxy)phenyl)pyridazine-3-carboxamide]	≤ 100	≤ 100	≤ 100	≤ 100
CNCCOc1cc2nccc(Oc3c(F)cc(NC(=O)c4cnccc4OC4CC4)cc3F)c2cc1OC [Example 54, 4-cyclopropoxy-N-[3,5-difluoro-4-({6-methoxy-7-[2-(methylamino)ethoxy]quinolin-4-yl}oxy)phenyl]pyridine-3-carboxamide]	≤ 100	≤ 100	≤ 100	≤ 100
COCCOc1ccc2c(Oc3c(F)cc(NC(=O)c4cnccc4OC4CC4)cc3F)ccnc2c1 [Example 105, 4-cyclopropoxy-N-(3,5-difluoro-4-{[7-(2-methoxyethoxy)quinolin-4-yl]oxy}phenyl)pyridine-3-carboxamide]	≤ 100	≤ 100	≤ 100	100 to 1000
CNCCOc1cc2nccc(Oc3c(F)cc(NC(=O)c4cnc(C)cc4OC4CC4)cc3F)c2cc1OC [Example 117, 4-cyclopropoxy-N-[3,5-difluoro-4-({6-methoxy-7-[2-(methylamino)ethoxy]quinolin-4-yl}oxy)phenyl]-6-methylpyridine-3-carboxamide]	≤ 100	≤ 100	≤ 100	≤ 100
CNCCCOc1cc2nccc(Oc3c(F)cc(NC(=O)c4cnccc4OC4COC4)cc3F)c2cc1OC [Example 86, N-(3,5-difluoro-4-((6-methoxy-7-(3-(methylamino)propoxy)quinolin-4-yl)oxy)phenyl)-4-(oxetan-3-yloxy)pyridine-3-carboxamide]	≤ 100	≤ 100	100 to 1000	100 to 1000
COc1cc2nccc(Oc3c(F)cc(NC(=O)c4cnccc4OC)cc3F)c2cc1OC [Example 34, N-(4-((6,7-dimethoxyquinolin-4-yl)oxy)-3,5-difluorophenyl)-4-methoxypyridine-3-carboxamide]	≤ 100	≤ 100	≤ 100	100 to 1000
COc1cc2c(Oc3c(F)cc(NC(=O)c4cnccc4OC)cc3F)ccnc2cc1OCC(C)(C)O [Example 39, N-(3,5-difluoro-4-((7-(2-hydroxy-2-methylpropoxy)-6-methoxyquinolin-4-yl)oxy)phenyl)-4-methoxypyridine-3-carboxamide]	≤ 100	≤ 100	≤ 100	100 to 1000
CCOc1ccncc1C(=O)Nc1cc(F)c(Oc2ccnc3cc(OCCCN(C)C)c(OC)cc23)cc1F [Example 23, N-(4-((7-(3-(dimethylamino)propoxy)-6-methoxyquinolin-4-yl)oxy)-2,5-difluorophenyl)-4-ethoxypyridine-3-carboxamide]	≤ 100	≤ 100	≤ 100	100 to 1000
CNCCOc1cc2nccc(Oc3c(F)cc(NC(=O)c4cncnc4OC4CC4)cc3F)c2cc1OC [Example 76, 4-cyclopropoxy-N-[3,5-difluoro-4-({6-methoxy-7-[2-(methylamino)ethoxy]quinolin-4-yl}oxy)phenyl]pyrimidine-5-carboxamide]	≤ 100	≤ 100	100 to 1000	100 to 1000
CNCCCOc1cc2nccc(Oc3cc(F)c(NC(=O)c4cnccc4OC)cc3F)c2cc1OC [Example 22, N-[2,5-difluoro-4-({6-methoxy-7-[3-(methylamino)propoxy]quinolin-4-yl}oxy)phenyl]-4-methoxypyridine-3-carboxamide]	≤ 100	≤ 100	100 to 1000	100 to 1000
